“Also recorded” adds a separate entry of the source. Values belong to the compound of their own block, whether it stands above or below them. Where a SMILES comes first, the peptide text is derived from it.
Tests used:
[1] = tested on: TNFα; assay: TNFα-induced cytotoxicity (control); type: cell-based; conditions: specificity control
Method: (§1) In these assays, CD40L induced CD86 expression in a concentration-dependent manner in the absence of a peptidyl inhibitor of the present invention with an EC50 value of about 9 nM (FIG. 6d, 6e). As a control in these assays, LPS-induced expression of CD86 mediated by the Toll-like receptors TLR 2/4, and TNFα-induced cytoxicity, were also assayed to exclude effects mediated by ligands other than CD40L.

[2] = molecular target: T1, CD40L/CD40-Fc (Homo sapiens, UniProt P29965); assay: Chemiluminescent proximity assay (Alphascreen) of CD40L-CD40 interaction; type: binding; conditions: monomeric and dimeric peptides, Table 5; read-out: EC50
T1 sequence (P29965 113-261 limits assumed): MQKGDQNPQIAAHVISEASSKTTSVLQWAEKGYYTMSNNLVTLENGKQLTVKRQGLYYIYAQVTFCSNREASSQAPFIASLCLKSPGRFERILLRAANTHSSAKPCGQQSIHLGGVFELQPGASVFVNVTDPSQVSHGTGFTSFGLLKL
Method: In one example, the Alphascreen assay (PerkinElmer) was employed according to the manufacturer's instructions.
Homodimers and heterodimers were also assayed by chemiluminescent proximity assay for their ability to inhibit CD40L-CD40 interaction.

[3] = molecular target: CD40L-induced CD86 expression on primary B-cells (Homo sapiens, UniProt P29965); assay: Inhibition of CD40L-induced CD86 expression on primary B-cells (FACS); type: cell-based; conditions: monomeric and dimeric peptides, Table 7; read-out: EC50
Sequence of CD40L-induced CD86 expression on primary B-cells (P29965 whole entry): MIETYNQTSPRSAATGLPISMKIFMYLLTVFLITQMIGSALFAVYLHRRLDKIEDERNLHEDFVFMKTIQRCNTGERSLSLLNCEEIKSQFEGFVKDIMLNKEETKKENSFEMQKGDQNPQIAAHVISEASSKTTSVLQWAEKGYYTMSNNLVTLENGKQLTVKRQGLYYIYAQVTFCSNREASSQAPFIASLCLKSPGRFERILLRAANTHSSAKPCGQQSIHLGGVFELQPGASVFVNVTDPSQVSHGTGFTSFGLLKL
Sequence of CD40L-induced CD86 expression on primary B-cells (P25942 21-277 partner): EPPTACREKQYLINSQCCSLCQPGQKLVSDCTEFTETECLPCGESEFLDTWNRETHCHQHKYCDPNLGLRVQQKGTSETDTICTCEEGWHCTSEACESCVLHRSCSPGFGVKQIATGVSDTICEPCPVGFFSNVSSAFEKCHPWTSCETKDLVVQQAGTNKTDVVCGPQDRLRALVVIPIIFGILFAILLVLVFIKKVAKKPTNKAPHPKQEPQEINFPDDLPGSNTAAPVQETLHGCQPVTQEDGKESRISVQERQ
Method: In one example, the ability of a peptide, analog or derivative of the invention to inhibit or reduce or delay expression of CD86 on primary B-cells was determined in the presence and absence of the peptides, analogs and derivatives of the invention. In particular, CD86 expression was determined by FACS.
as §1
In a similar series of bioassays, dimeric forms of the CD40L peptide inhibitors were also tested for their ability to inhibit or reduce CD40L-induced expression of CD86 on primary B-cells.

[4] = tested on: T cells from transgenic D011.10 mice; assay: Antigen-specific T-cell proliferation assay; type: cell-based; conditions: 10 μM or 20 μM peptide
Method: Briefly, pooled DLN (consisting parathymic and posterior mediastinal nodes) were collected from transgenic D011.10 mice engineered to express ovalbumin-specific T cell receptors (TCRs). Enriched T-cell suspensions were prepared and stimulated with 10 μg/ml ovalbumin in the presence or absence of 10 μM or 20 μM concentration of anti-CD40L peptidyl inhibitors. The peptides tested were PEGylated serine derivatives and/or chiral analogs of peptides CD40L M1—6, CD40L M1—9, CD40L M1—18, CD40L M1—30, CD40L M1—42, CD40L M1—50, CD40L M7—82 and CD40L M7—206. Cells were cultured for 24-72 hrs and then pulsed with [^3H]thymidine for another 24 hr to measure T-cell proliferation.

[5] = molecular target: T2, CD40L (Homo sapiens, UniProt P29965); assay: Octet Red label-free association/dissociation analysis; type: binding; conditions: versus CD40L M1—206
T2 construct: measures of the “on” and “off” rates of the peptides relative to soluble CD40L
T2 sequence (P29965 113-261 limits assumed): T1 sequence (P29965 113-261 limits assumed)
Method: Label-free analyses of the associations and dissociations of base peptides and serine derivatives of base peptides with the CD40L target protein were performed using the Octet Red system (ForteBio, Inc., USA) according to the manufacturer's instructions. These analyses provide kinetic constants of CD40L binding activity, especially the association rate constant (Ka) and dissociation rate constant (Kd) of binding, i.e., measures of the “on” and “off” rates of the peptides relative to soluble CD40L.

Compound: CC[C@H](C)[C@H](NC(=O)[C@H](CO)NC(=O)[C@H](Cc1c[nH]c2ccccc12)NC(=O)[C@H](CCC(N)=O)NC(=O)[C@@H](NC(=O)[C@@H]1CCCN1C(=O)[C@H](Cc1ccccc1)NC(=O)[C@H](Cc1ccccc1)NC(=O)[C@H](Cc1c[nH]c2ccccc12)NC(=O)CNC(=O)[C@H](Cc1ccc(O)cc1)NC(=O)[C@H](CCCCN)NC(=O)[C@H](CC(C)C)NC(=O)[C@@H](NC(=O)[C@H](Cc1c[nH]cn1)NC(=O)[C@H](CO)NC(=O)[C@H](CCCNC(=N)N)NC(=O)[C@H](Cc1ccc(O)cc1)NC(=O)[C@@H]1CCCN1C(=O)[C@@H](NC(=O)[C@H](Cc1ccccc1)NC(=O)[C@@H]1CCCN1C(=O)[C@@H](N)CC(C)C)C(C)C)C(C)C)C(C)C)C(=O)N[C@@H](Cc1ccccc1)C(=O)N[C@@H](C)C(=O)N[C@H](C(=O)N[C@@H](CC(C)C)C(=O)N1CCC[C@H]1C(=O)N[C@@H](Cc1ccccc1)C(=O)N[C@@H](CCC(N)=O)C(=O)N[C@@H](Cc1ccc(O)cc1)C(=O)N[C@@H](CC(C)C)C(=O)N[C@@H](Cc1c[nH]cn1)C(=O)N[C@@H](CCCNC(=N)N)C(=O)N[C@@H](CO)C(=O)N[C@@H](CCCNC(=N)N)C(=O)O)C(C)C [CD40L M1_18s] (H-LPFVPYRSHVLKYGWFFPVQWSIFAVLPFQYLHRSR-OH; N-terminus and C-terminus assumed)
- inhibition of rTNFα-induced cytoxicity ([1]; listed as M1—18*S): lack of inhibition
- inhibition of rTNFα-induced cytoxicity ([1]; listed as M1—18S): no significant inhibition

- EC50 [2]: 564 nM
- EC50 [3]: 564 nM
Compound: CC(C)C[C@H](NC(=O)[C@H](Cc1ccc(O)cc1)NC(=O)[C@H](CC(=O)O)NC(=O)[C@H](CCCNC(=N)N)NC(=O)[C@H](CCCNC(=N)N)NC(=O)[C@H](Cc1ccccc1)NC(=O)[C@H](CO)NC(=O)[C@H](CO)NC(=O)[C@H](Cc1ccc(O)cc1)NC(=O)[C@H](Cc1ccccc1)NC(=O)[C@H](CCCNC(=N)N)NC(=O)[C@H](Cc1ccccc1)NC(=O)[C@H](CC(C)C)NC(=O)[C@H](Cc1ccccc1)NC(=O)[C@H](Cc1ccccc1)NC(=O)[C@H](CC(C)C)NC(=O)[C@H](CC(N)=O)NC(=O)[C@H](Cc1ccc(O)cc1)NC(=O)[C@H](CCCNC(=N)N)NC(=O)[C@@H]1CCCN1C(=O)[C@@H]1CCCN1)C(=O)N[C@@H](Cc1ccc(O)cc1)C(=O)N[C@@H](Cc1ccccc1)C(=O)O [CD40L M1_9s] (H-PPRYNLFFLFRFYSSFRRDYLYF-OH; N-terminus and C-terminus assumed)
- inhibition of rTNFα-induced cytoxicity [1]: lack of inhibition; also recorded: no significant inhibition

Compound: AQWWHHRFSFLGAIQFFERGAAD [CD40L M1_30rd]
- relative performance in T-cell proliferation assay [4]: best-performing

Compound: SKVRMQFDIINFPVNVGFLVFSH [CD40L M1_42rd]
- relative performance in T-cell proliferation assay [4]: best-performing

Compound: PFTWRPTIFWIIQLIVYMRHFGGGGSRSELLRENICRYVSLFDHPLQRNTPLDELRFVIFDTETSGFDLVKDRILSIR [CD40L D1_0014]
- fold higher affinity for CD40L than base monomeric peptide [5]: 6 fold
